Measured values reported in article PMC11982498 (Redox Biology, 2025).
“Also recorded” adds a separate entry of the source.

Assays:
[1] = tested on: bio-BCL-2 (BCL-2 IM) (DNA, i motif) CAGCCCCGCTCCCGCCCCCTTCCTCCCGCGCCCGCCCCT; assay: SPR; details: K+ 100 mM; 20 mM MES, pH 5.5, 25 °C
[2] = tested on: BCL-2 promoter C-rich sequence; assay: EMSA of BCL-2 i-motif formation; type: binding; details: pH 6.2; 1, 5, 10 eq
Protocol: (§1) Figure S5. ESI-MS, UV, CD, and EMSA experiments were performed to examine the effect of B14 on BCL-2 promoter i-motif and G-quadruplex. (A) ESI-MS experiment for oligomer BCL-2 G4 alone, which was annealed in 1 × BPES buffer at pH 7.4. (B) ESI-MS experiment for above oligomer BCL-2 G4 with addition of B14 in 1 × BPES buffer at pH 7.4. (C-D) TO displacement with increasing amount of oligomer BCL-2 i-motif annealed in 1 X BPES buffer at pH 5.5 in the presence of 20 equivalents of B14 or A22. (E) EMSA experiment was performed for the effect of B14 on inducing BCL-2 i-motif formation. The lanes from left to right were as follow: BCL-2 i-motif alone at pH 5.5; BCL-2 i-motif alone at pH 6.2; BCL-2 i-motif plus 1 eq B14 at pH 6.2; BCL-2 i-motif plus 5 eq B14 at pH 6.2; BCL-2 i-motif plus 10 eq B14 at pH 6.2. (F) CD experiment was performed to study the interaction of B14 or A22 with BCL-2 promoter i-motif.
The DNA oligonucleotides were diluted to 5 μM with 1 × BPES buffer at pH 5.5 or pH 6.2, and different equivalents of compound were added. The mixtures were annealed at 95 °C for 10 min, gradually cooled to room temperature, and incubated at 4 °C overnight. Electrophoresis was carried out using 20% acrylamide Native PAGE (pH 6.4) with 1 × Tris-borate-EDTA (TBE) as running buffer (pH 6.4) at 80 V for 7 h at 4 °C. The gels were then silver-stained and photographed.

BCL-2 i-motif = assay: CD spectra of BCL-2 i-motif; type: binding
Protocol: as §1
CD measurements were performed on a Chirascan circular dichroism spectrophotometer (Chirascan, England). A 10 mm path length quartz cuvette was used to record the spectra with a wavelength range of 230-350 nm with a 1 nm bandwidth. CD and CD melting experiments were performed at a fixed i-motif or G-quadruplex concentration (1 μM) with or without a fixed concentration (20 μM) of B14 and Curcumin in different buffers. […]

[3] = tested on: bEnd.3 in vitro BBB model; assay: Measurement of in vitro BBB transport (bEnd.3 transwell); type: in vitro ADME
Protocol: bEnd.3 (10 × 10^4 cells/well) was cultured in the upper chamber of a 12 wells-plate within a transwell system. The transepithelial electrical resistance (TEER) was measured to monitor the tightness of the monolayer, and the monolayer of cells with a minimum of 200 Ω cm^2 was used for further experiments.

Aβ1-42 [4] = molecular target: T1, Aβ1-42 (Homo sapiens, UniProt P05067); assay: Thioflavine T (ThT) assay of self-induced Aβ1-42 aggregation; type: biochemical
T1 construct: Aβ1-42 was purchased from Gill Biochemicals Ltd (Shanghai, China); purchased Gill Biochemicals Ltd (Shanghai, China)
T1 sequence (P05067 672-713 limits assumed): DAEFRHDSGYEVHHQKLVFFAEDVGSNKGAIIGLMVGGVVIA
Protocol: The experiment was performed following standardized amyloid detection protocols without significant modification. Curcumin (Aladdin, Shanghai, China), a natural inhibitor of Aβ deposition, was used as a positive control with ThT (Aladdin, Shanghai, China) as a fluorescent indicator. 30 μL of freshly formulated Aβ1-42 (30 μM) was incubated without or with A1-16, B1-14, Curcumin at concentration of 40 μM for 24h. Then, it was mixed with 400 μL of freshly formulated ThT (15 μM), which was incubated in the dark for 30 min. Fluorescence signals were recorded using a fluorescence spectrophotometer, and changes in Aβ fibre deposition were determined through the strength of the fluorescence signals. The scanning conditions were set as follows: excitation wavelength at 440 nm, emission wavelength at 480 nm, and slit width of 20 nm.
^a Self-induced Aβ1-42 aggregation (means ± SD of three experiments). The thioflavin-T fluorescence method was used, and the measurements were carried out in the presence of 40 μM test compound. […]
[picture] […] The fluorescence intensity of different concentrations of B14 was measured after incubation with Aβ1-42. Data were statistically analyzed as mean ± SEM. (A) ThT fluorescence intensity. (B) IC50 value for B14 against Aβ1-42 aggregation was determined by using ThT fluorescence intensity.

Aβ1-42 [5] = molecular target: T1, Aβ1-42; assay: Thioflavine T fluorescence spectroscopy assay (time course to 96 h); type: biochemical; details: 20 μM compound, Aβ1-42 incubated for 96 h
Protocol: (§2) The Aβ1-42 solutions (100 μM) were co-incubated with B14 (20 μM) or Curcumin (20 μM) at 37 °C protected from light for 96 h. 30 μL of Aβ1-42 solution was taken at different time points (0 h, 10 h, 24 h, 48 h, 72 h, 96 h), mixed fully with 400 μL of ThT solution (15 μM), and incubated in the dark for 30 min. The fluorescence signal was recorded by using a Cary Eclipse fluorescence spectrophotometer (Varian, USA) with the following setting: excitation wavelength at 440 nm, emission wavelength at 480 nm, and slit width of 20 nm.
as §2, with “μM) and” for “μM) or”, “Aβ1-42 solutions were” for “Aβ1-42 solution was”, “by” for “by using”, “with” for “with the following setting:”

For O=C(CCN1CCOCC1)Nc1ccc2c(c1)c(=O)c1cc(NC(=O)CCN3CCOCC3)ccc1n2-c1ccc2occc2c1 [Compound B14], the KD [1] was 2.13 µM, the “i-motif migration band (EMSA)” value [2] was “could induce BCL-2 i-motif formation in a dose-dependent manner” and the “CD absorption peak of BCL-2 i-motif” value (BCL-2 i-motif) was “stronger effect than A22; also recorded: apparently enhanced absorption peak at 286 nm”. For the same molecule, the Permeability ([3]; 6 h) was 45.80%, the Permeability ([3]; 24 h) was 55.74% and the inhibition at 40 µM (Aβ1-42 [4]; 40 μM compound, ThT fluorescence, read-out: inhibition of Aβ self-aggregation) was 78.4%. The IC50 (Aβ1-42 [4]; ThT fluorescence intensity, read-out: IC50 against Aβ1-42 aggregation) was 24 µM and the “decrease of ThT fluorescence intensity” value (Aβ1-42 [5]) was 39.58 ± 2.08%.
